Source: patent publication US10611732B2, “HIV replication inhibiting pyrimidines” (Janssen Pharmaceutica NV, priority 2001, dated 2020)
Like-named read-outs stand apart in the source and are kept apart here.

What was measured:
HIV = experiment: microbe, parasite or virus in culture; details: for IC50: Human immunodeficiency virus 1, MT4, read-out: pIC50 (−log IC50), HIV-infected MT-4 cells (converted); for IC50 / pIC50 (−log IC50): dose achieving 50% protection, MTT, OD 540 nm; for pSI (pCC50-pIC50): selectivity index, ratio of CC50 to IC50, as log difference; for pIC50 (−log IC50): HIV-infected MT-4 cells
Protocol: (§1) A rapid, sensitive and automated assay procedure was used for the in vitro evaluation of anti-HIV agents. An […] T4-cell line, MT-4, which was previously shown (Koyanagi et al., Int. J Cancer, 36, 445-451, 1985) to be highly susceptible to and permissive for HIV infection, served as the target cell line. Inhibition of the HIV-induced cytopathic effect was used as the end point. The viability of both HIV- and mock-infected cells was assessed spectrophotometrically via the in situ reduction of 3-(4,5-dimethylthiazol-2-yl)-2,5-diphenyltetrazolium bromide (MTT). The 50% cytotoxic concentration (CC50 in M) was defined as the concentration of compound that reduced the absorbance of the mock-infected control sample by 50%. The percent protection achieved by the compound in HIV-infected cells was calculated by the following formula:
(§2) [formula] whereby (ODT)HIV is the optical density measured with a given concentration of the test compound in HIV-infected cells; (ODC)HIV is the optical density measured for the control untreated HIV-infected cells; (ODC)MOCK is the optical density measured for the control untreated mock-infected cells; all optical density values were determined at 540 nm. The dose achieving 50% protection according to the above formula was defined as the 50% inhibitory concentration (IC50 in M). The ratio of CC50 to IC50 was defined as the selectivity index (SI).
(§3) Table 6 lists the pIC50 (−log IC50), pCC50 (−log CC50) and pSI (pCC50-pIC50) values for the compounds of formula (I).

mock-infected MT-4 cells = experiment: cytotoxicity in mock-infected MT-4 cells (MTT)
Protocol: as §1, §2, §3

[1] = mock-infected MT-4 cells, concentration reducing absorbance of control by 50%, MTT

Structure (SMILES) | melting point [°C] | IC50 (HIV) [nM] | pSI (pCC50-pIC50) (HIV) | pIC50 (−log IC50) (HIV) | pCC50 (−log CC50) (mock-infected MT-4 cells) [M] | pCC50 (−log CC50) (mock-infected MT-4 cells; [1]) [M]
Cc1cc(/C=C/c2cccnc2)cc(C)c1Nc1ccnc(Nc2ccc(C#N)cc2)n1 | 120 |  |  |  |  | 
CCOCc1ccc(Oc2ccnc(Nc3ccc(C#N)cc3)n2)c(C)c1 [Compound 105] | 140 | 63.1 | <−3.2 |  |  | 
Cc1cc(C(=O)CC#N)cc(C)c1Nc1ccnc(Nc2ccc(C#N)cc2)n1 | 150 |  |  |  |  | 
CCN(C)C(=O)/C=C/c1cc(C)c(Oc2ccnc(Nc3ccc(C#N)cc3)n2)c(C)c1 [Compound 215] |  |  | −3.6 | 9.1 | 5.5 | 
Cc1cc(/C=C(/C#N)C(=O)C(C)(C)C)cc(C)c1Nc1ccnc(Nc2ccc(C#N)cc2)n1 [Compound 106] | 193 | 20 | −2.5 |  |  | 
CC(=CC#N)c1cc(C)c(Oc2ccnc(Nc3ccc(C#N)cc3)n2)c(C)c1 [Compound 213] |  |  | −4.2 | 9 | 4.8 | 
COc1cc(CCC#N)ccc1Nc1ccnc(Nc2ccc(C#N)cc2)n1 [Compound 251] |  |  | −3.9 | 8.9 | 5 | 
Cc1cc(C=C(C#N)CC#N)cc(C)c1Nc1ccnc(Nc2ccc(C#N)cc2)n1 (mixture of isomers) [Compound 147] |  |  | −3.7 | 9.4 | 5.7 | 
CC(C#N)=Cc1cc(C)c(Nc2ccnc(Nc3ccc(C#N)cc3)n2)c(Cl)c1 [Compound 233] |  |  | −3.6 | 9.3 | 5.7 | 
C/C(C#N)=C/c1cc(C)c(Nc2ccnc(Nc3ccc(C#N)cc3)n2)c(C)c1 [Compound 151] |  |  | −3.6 | 9.1 | 5.5 | 
N#C/C=C/c1ccc(Nc2ccnc(Nc3ccc(C#N)cc3)n2)c(Br)c1 [Compound 244] |  |  | −5.2 | 9.2 | 4 | 
Cc1cc(C=C(Br)Br)cc(C)c1Nc1ccnc(Nc2ccc(C#N)cc2)n1 | 223 |  |  |  |  | 
Cc1cc(CC(C)C#N)ccc1Oc1ccnc(Nc2ccc(C#N)cc2)n1 (stereo not drawn) [Compound 236] |  |  | <−4.8 | 8.8 | <4.0 | 
CC(C#N)=Cc1ccc(Oc2ccnc(Nc3ccc(C#N)cc3)n2)c(C)c1 [Compound 231] |  |  | <−5.2 | 9.2 | <4.0 | 
CC(C#N)=Cc1cc(C)c(Nc2ccnc(Nc3ccc(C#N)cc3)n2)c(Br)c1 [Compound 247] |  |  | −3 | 9.2 | 6.2 | 
COc1cc(C=C(C)C#N)ccc1Nc1ccnc(Nc2ccc(C#N)cc2)n1 [Compound 249] |  |  | −4.5 | 8.5 | 4 | 
Cc1ccc(N(C)C)c(C)c1Nc1ccnc(Nc2ccc(C#N)cc2)n1 | 132 |  |  |  |  | 
Cc1cc(CCC#N)ccc1Nc1ccnc(Nc2ccc(C#N)cc2)n1 [Compound 227] |  |  | <−5.5 | 9.5 | <4.0 | 
C/C(C#N)=C\c1cc(C)c(Oc2ccnc(Nc3ccc(C#N)cc3)n2)c(C)c1 [Compound 179] |  |  | <−4.9 | 8.9 | <4.0 | 
CC(=NO)c1cc(C)c(Nc2ccnc(Nc3ccc(C#N)cc3)n2)c(C)c1 [Compound 45] |  |  | −3.8 | 8.7 | 5.0 | 

Structure (SMILES) | melting point [°C] | IC50 (HIV) [nM] | pSI (pCC50-pIC50) (HIV) | pIC50 (−log IC50) (HIV) | pCC50 (−log CC50) (mock-infected MT-4 cells) [M] | pCC50 (−log CC50) (mock-infected MT-4 cells; [1]) [M]
C/C(C#N)=C/c1cc(C)c(Nc2ccnc(Nc3ccc(C#N)cc3)n2)c(C)c1 [Compound 11] |  |  | −3.5 | 9.2 | 5.7 | 
Cc1cc(CCC#N)ccc1Oc1ccnc(Nc2ccc(C#N)cc2)n1 [Compound 234] |  |  | <−4.7 | 8.7 | <4.0 | 
C/C(=C\C#N)c1cc(C)c(Nc2ccnc(Nc3ccc(C#N)cc3)n2)c(C)c1 [Compound 84] |  |  | −4.5 | 9.0 | 4.5 | 
Cc1cc(/C=C\Br)cc(C)c1Oc1ccnc(Nc2ccc(C#N)cc2)n1 [Compound 177] |  |  | <−4.3 | 8.3 | <4.0 | 
Cc1cc(/C=C/C(=O)N(C)CC#N)cc(C)c1Oc1ccnc(Nc2ccc(C#N)cc2)n1 [Compound 212] |  |  | −4.1 | 9.1 | 5 | 
CCN(C)C(=O)/C=C/c1cc(C)c(Nc2ccnc(Nc3ccc(C#N)cc3)n2)c(C)c1 [Compound 158] |  |  | −2.5 | 8 | 5.5 | 
Cc1cc(CN(C)C=NC#N)cc(C)c1Oc1ccnc(Nc2ccc(C#N)cc2)n1 [Compound 174] |  |  | −3.5 | 8.8 | 5.3 | 
Cc1cc(/C=C/C#N)cc(C)c1Nc1ccnc(Nc2ccc(C#N)cc2)n1 [Compound 1, 4-[[4-[[4-(2-cyanoethenyl)-2,6-dimethylphenyl]amino]-2-pyrimidinyl]amino]benzonitrile (E)] |  | 0.398 | −4.4 |  |  | 5.0
Cc1cc(/C=C/C(=O)N(C)C)cc(C)c1Nc1ccnc(Nc2ccc(C#N)cc2)n1 [Compound 112] | > 264 | 0.794 | −4.2 |  |  | 
Cc1cc(C(C)CC#N)ccc1Oc1ccnc(Nc2ccc(C#N)cc2)n1 (stereo not drawn) [Compound 235] |  |  | <−5.3 | 9.3 | <4.0 | 
Cc1cc(/C=C/c2cccnc2)cc(C)c1Nc1ccnc(Nc2ccc(C#N)cc2)n1 [Compound 146] |  |  | −3 | 8.4 |  | 5.4
Cc1cc(/C=C\Cl)cc(C)c1Nc1ccnc(Nc2ccc(C#N)cc2)n1 | 250 |  |  |  |  | 
Cc1cc(-c2ccc(C#N)o2)cc(C)c1Nc1ccnc(Nc2ccc(C#N)cc2)n1 [Compound 126] | > 260 | 3.98 | −3.5 |  |  | 
Cc1cc(/C=C/C(=O)N(C)CCC#N)cc(C)c1Nc1ccnc(Nc2ccc(C#N)cc2)n1 [Compound 114] | 168 | 2.51 | −3.5 |  |  | 
CCCCN(C)C(=O)/C=C/c1cc(C)c(Oc2ccnc(Nc3ccc(C#N)cc3)n2)c(C)c1 | 212 |  |  |  |  | 
Cc1cc(/C=C/C(=O)N(C)CCC#N)cc(C)c1Oc1ccnc(Nc2ccc(C#N)cc2)n1 [Compound 214] |  |  | −3.5 | 8.6 | 5.1 | 
Cc1cc(/C=C/C#N)cc(-c2ccco2)c1Nc1ccnc(Nc2ccc(C#N)cc2)n1 [Compound 239] |  |  | −3.9 | 8.9 | 5 | 
Cc1cc(/C=C/C#N)cc(Cl)c1Nc1ccnc(Nc2ccc(C#N)cc2)n1 [Compound 133] |  |  | −5.2 | 9.2 | 4 | 
Cc1cc(CC(C#N)C#N)cc(C)c1Nc1ccnc(Nc2ccc(C#N)cc2)n1 [Compound 144] |  |  | −2.2 | 8.6 | 6.4 | 
COc1cc(/C=C/C#N)ccc1Nc1ccnc(Nc2ccc(C#N)cc2)n1 [Compound 245] |  |  | −4.8 | 8.8 | 4 | 
